According to PubChem BioAssay (NCI):
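In this assay, cells in 96-well plates receive the compound at five concentrations for 48 hours. Endpoints are linearly interpolated between the surrounding concentrations. TGI is the concentration that stops growth completely.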

Key:
Experiment in all cases: NCI-60 cell line screen, 48 h
786-0 renal = test system: 786-0 renal
A549 NSCLC = test system: A549 NSCLC
ACHN renal = test system: ACHN renal
COLO 205 colon = test system: COLO 205 colon
DLD-1 colon = test system: DLD-1 colon
DMS 114 small cell lung = test system: DMS 114 small cell lung
DMS 273 small cell lung = test system: DMS 273 small cell lung
EKVX NSCLC = test system: EKVX NSCLC
HCC-2998 colon = test system: HCC-2998 colon
HCT-116 colon = test system: HCT-116 colon
HCT-15 colon = test system: HCT-15 colon
HOP-18 NSCLC = test system: HOP-18 NSCLC
HOP-62 NSCLC = test system: HOP-62 NSCLC
HOP-92 NSCLC = test system: HOP-92 NSCLC
HT29 colon = test system: HT29 colon
IGROV1 ovarian = test system: IGROV1 ovarian
KM12 colon = test system: KM12 colon
KM20L2 colon = test system: KM20L2 colon
LOX IMVI melanoma = test system: LOX IMVI melanoma
LXFL 529 NSCLC = test system: LXFL 529 NSCLC
M14 melanoma = test system: M14 melanoma
M19-MEL melanoma = test system: M19-MEL melanoma
MALME-3M melanoma = test system: MALME-3M melanoma
MOLT-4 leukemia = test system: MOLT-4 leukemia
NCI-H226 lung = test system: NCI-H226 lung
NCI-H23 lung = test system: NCI-H23 lung
NCI-H460 lung = test system: NCI-H460 lung
NCI-H522 lung = test system: NCI-H522 lung
OVCAR-3 ovarian = test system: OVCAR-3 ovarian
OVCAR-5 ovarian = test system: OVCAR-5 ovarian
OVCAR-8 ovarian = test system: OVCAR-8 ovarian
RPMI-8226 leukemia = test system: RPMI-8226 leukemia
RXF 393 renal = test system: RXF 393 renal
SF-268 CNS = test system: SF-268 CNS
SF-295 CNS = test system: SF-295 CNS
SF-539 CNS = test system: SF-539 CNS
SK-MEL-2 melanoma = test system: SK-MEL-2 melanoma
SK-MEL-28 melanoma = test system: SK-MEL-28 melanoma
SK-MEL-5 melanoma = test system: SK-MEL-5 melanoma
SK-OV-3 ovarian = test system: SK-OV-3 ovarian
SN12C renal = test system: SN12C renal
SNB-19 CNS = test system: SNB-19 CNS
SNB-75 CNS = test system: SNB-75 CNS
SNB-78 CNS = test system: SNB-78 CNS
SR leukemia = test system: SR leukemia
SW-620 colon = test system: SW-620 colon
TK-10 renal = test system: TK-10 renal
U251 CNS = test system: U251 CNS
UACC-257 melanoma = test system: UACC-257 melanoma
UACC-62 melanoma = test system: UACC-62 melanoma
UO-31 renal = test system: UO-31 renal
XF 498 CNS = test system: XF 498 CNS
A498 renal = test system: A498 renal
CCRF-CEM leukemia = test system: CCRF-CEM leukemia
HL-60(TB) leukemia = test system: HL-60(TB) leukemia
K-562 leukemia = test system: K-562 leukemia
OVCAR-4 ovarian = test system: OVCAR-4 ovarian

Measured: TGI

COc1ccc(-c2ccccc2)c(N/N=C2\CCCNC2=O)c1
27 µM: A549 NSCLC
25.8 µM: HCT-116 colon
87.7 µM: XF 498 CNS
27.5 µM: RXF 393 renal
87.1 µM: HOP-62 NSCLC
not listed: A498 renal | CCRF-CEM leukemia | HL-60(TB) leukemia | K-562 leukemia | OVCAR-4 ovarian
> 100 µM: all other assays above

CCOC(=O)COc1ccc(OC)c2c1C(=O)CCC2
not listed: 786-0 renal | DLD-1 colon | HCC-2998 colon | HOP-62 NSCLC | HOP-92 NSCLC | KM12 colon | MALME-3M melanoma | NCI-H226 lung | NCI-H522 lung | OVCAR-5 ovarian | SF-268 CNS | SK-MEL-2 melanoma | SR leukemia | UO-31 renal
> 100 µM: all other assays above
